Results: ChEMBL document CHEMBL5390204, “Persephacin Is a Broad-Spectrum Antifungal Aureobasidin Metabolite That Overcomes Intrinsic Resistance in Aspergillus fumigatus” (J Nat Prod, 2023)
Values after ≈ are worked out from the molar mass of the structure shown. Active and inactive are the calls of the source. The calls are words filed in the database; no cut-off is given here.

Columns and labels:
[1] = tested on: Candida albicans; test: Antifungal activity against fluconazole-resistant Candida albicans SC5314 infected in pig cornea assessed as suppression of fungal growth at 0.1 % administered post fungal infection measured after 4 days by microscopic analysis; type: functional, organism-based; conditions: time 4.0 day
[2] = tested on: Paecilomyces lilacinus; test: Antifungal activity against Paecilomyces lilacinus 165E10 assessed as reduction in fungal growth incubated for 48 hrs by microplate reader analysis; type: functional; conditions: Purpureocillium lilacinum
[3] = tested on: Nakaseomyces glabratus; test: Antifungal activity against Candida glabrata 11 assessed as inhibition in fungal growth incubated for 48 hrs by microplate reader analysis; type: functional
[4] = Toxicity against human skin model at 10 to 1000 uM; type: tissue-based, Skin of body; conditions: dose 10-1000 µM
[5] = tested on: Candida albicans; test: Antifungal activity against Candida albicans 8 assessed as inhibition in fungal growth incubated for 48 hrs by microplate reader analysis; type: functional
[6] = tested on: Candida albicans; test: Antifungal activity against Candida albicans SC5314 infected in pig cornea assessed as suppression of fungal growth at 0.1 % administered post fungal infection measured after 4 days by microscopic analysis; type: functional, organism-based; conditions: time 4.0 day
[7] = Toxicity against human eye model assessed as irritation at 10 to 1000 uM; type: tissue-based; conditions: dose 10-1000 µM
[8] = tested on: Aspergillus flavus; test: Antifungal activity against Aspergillus flavus NRRL485 assessed as reduction in fungal viability incubated for 48 hrs by microplate reader analysis; type: functional
[9] = tested on: Aspergillus fumigatus; test: Antifungal activity against Aspergillus fumigatus NRRL5109 infected in pig cornea assessed as suppression of fungal growth at 0.1 % administered post fungal infection measured after 4 days by microscopic analysis; type: functional, organism-based; conditions: time 4.0 day
[10] = tested on: Hamigera insecticola; test: Antifungal activity against Hamigera insecticola NRRL35442 assessed as reduction in fungal growth incubated for 48 hrs by microplate reader analysis; type: functional

CC[C@H](C)C[C@H](C)C[C@H](C)C[C@@H]1NC(=O)[C@H](C(C)C)N(C)C(=O)[C@@H]([C@H](C)CC)OC(=O)[C@H](C(C)(C)O)N(C)C(=O)[C@H](CC(C)C)NC(=O)[C@H](C(C)C)N(C)C(=O)[C@H]([C@H](C)CC)NC(=O)[C@@H]2CCCN2C(=O)CN(C)C1=O
Activity [1]: Active | MFC [2]: > 10 µM | MIC80 [2]: 2.5 µM (≈ 2.69 µg/mL) | MIC80 [3]: 0.6 µM (≈ 0.645 µg/mL) | Activity [4]: Non-Toxic | MIC80 [5]: 0.6 µM (≈ 0.645 µg/mL) | Activity [6]: Active | Activity [7]: Non-Toxic | MFC<=99.9 [8]: >10 µM | Activity [9]: Active | MFC [10]: 5 µM (≈ 5.38 µg/mL) | MIC80 [10]: 0.6 µM (≈ 0.645 µg/mL)

C[C@@H]1[C@H](O)[C@@H](C)/C=C/C=C/C=C/C=C/C=C/C=C/C=C/[C@H](O[C@@H]2O[C@H](C)[C@@H](O)[C@H](N)[C@@H]2O)C[C@@H]2O[C@](O)(C[C@@H](O)C[C@@H](O)[C@H](O)CC[C@@H](O)C[C@@H](O)CC(=O)O[C@H]1C)C[C@H](O)[C@H]2C(=O)O [AMPHOTERICIN B]
MFC [2]: > 10 µM | MIC80 [2]: > 10 µM | MIC80 [3]: 0.3 µM (≈ 0.277 µg/mL) | MIC80 [5]: 0.6 µM (≈ 0.554 µg/mL) | MFC<=99.9 [8]: 10 µM (≈ 9.24 µg/mL) | MFC [10]: 10 µM (≈ 9.24 µg/mL) | MIC80 [10]: 2.5 µM (≈ 2.31 µg/mL)
